Measured values as given in paper PMC4428687 (FEMS yeast research, 2013).

Experiments:
[1] = target: CaPma1p (Candida albicans, UniProt A0A1D8PJ01); assay: ATPase activity; assay type: biochemical
[2] = target: CaPma1p (Candida albicans, UniProt A0A1D8PJ01, A570P/A595V/D557N/D559E/I574L/N594R/S564G/S601N/V186I/V531I); assay: biochemical
[3] = target: CaPma1p (Candida albicans, UniProt A0A1D8PJ01, A570P/A595V/I574L/N594R/S601N); assay: biochemical
[4] = target: CaPma1p-ScPma2p chimera expressed in Saccharomyces cerevisiae (C. albicans SC5314 (with residues of S. cerevisiae Pma2p)) (UniProt P28877); assay: SEC

Compound: [O]=[V]([OH])([OH])[OH] [vanadate]
- IC50 [1]: 2 to 9 µM
- IC50 [2]: 2 to 9 µM
- IC50 [3]: 2 to 9 µM

Compound: CaPma1p-ScPma2p chimera expressed in Saccharomyces cerevisiae (from UniProt P28877 1-895) (enzyme)
- stoichiometry N [4]: > 4
